Consider one compound from publication PMC11859031, “Assessment of the In Vitro Biological Activities of Schiff Base-Synthesized Copper Oxide Nanoparticles as an Anti-Diabetic, Anti-Alzheimer, and Anti-Cancer Agent” (Pharmaceutics, 2025).

Converted amounts (≈) assume the structure as drawn.

The test system of test [1] is human hepatocellular carcinoma (HepG-2) cell line. Nature of the test: MTT cytotoxicity, HepG-2.
Test [2] in a line: Total antioxidant capacity (TAC), phosphomolybdenum method. To be noted: samples at 100 µg/mL; mean ± SE, n = 3. As for the experimental part:
1. Preparation of SB-CuO-NPs
The copper oxide nanoparticles (CuO-NPs) were biosynthesized using a concentrated anhydrous copper sulfate solution (1 mM) as a metal precursor based […]
dissolved in 100 ml of deionized water to form a 0.1 M concentration. The Schiff base (SB) was mixed with the metal solution in a ratio of 4:1. The SB-CuO-NPs was monitored by a color change. They were dried at 80 °C after centrifuging the colloidal solution at 4000 rpm for 15 min.
2. Characterization of the SB-CuO-NPs
The spectra of the SB-CuO-NPs were characterized using a Shimadzu UV-VIS recording spectrophotometer UV-240 after diluting the samples (10-fold) with deionized water at λ 200 - 800 nm. Their surface zeta potentials were measured using the laser zeta meter (Malvern Zetasizer 2000, Malvern, Worcestershire, UK) following […]
Moreover, their average hydrodynamic sizes were determined using the laser diffraction method with multiple scattering techniques employing dynamic light scattering (DLS) (Malvern Zetasizer Nano ZS, Malvern Instruments Ltd., Malvern, United Kingdom) (Murdock et al., 2008). […]
All biological activities were assessed in the prepared samples at equal concentrations (100 µg/mL). […]
After cooling to room temperature, the absorbance was measured at 695 nm against the blank. […] The antioxidant capacity was expressed as mg gallic acid equivalent per gram weight. […]

The target of test [3] is bovine serum albumin (BSA) (Bos taurus, UniProt P02769). Nature of the test: Inhibition of protein denaturation (anti-arthritic). The settings on record: read-out: Protein Denaturation Inhib. (%). As for the experimental part: 3.5. Anti-arthritic activity
bovine serum albumin (BSA), sequence (P02769 25-607): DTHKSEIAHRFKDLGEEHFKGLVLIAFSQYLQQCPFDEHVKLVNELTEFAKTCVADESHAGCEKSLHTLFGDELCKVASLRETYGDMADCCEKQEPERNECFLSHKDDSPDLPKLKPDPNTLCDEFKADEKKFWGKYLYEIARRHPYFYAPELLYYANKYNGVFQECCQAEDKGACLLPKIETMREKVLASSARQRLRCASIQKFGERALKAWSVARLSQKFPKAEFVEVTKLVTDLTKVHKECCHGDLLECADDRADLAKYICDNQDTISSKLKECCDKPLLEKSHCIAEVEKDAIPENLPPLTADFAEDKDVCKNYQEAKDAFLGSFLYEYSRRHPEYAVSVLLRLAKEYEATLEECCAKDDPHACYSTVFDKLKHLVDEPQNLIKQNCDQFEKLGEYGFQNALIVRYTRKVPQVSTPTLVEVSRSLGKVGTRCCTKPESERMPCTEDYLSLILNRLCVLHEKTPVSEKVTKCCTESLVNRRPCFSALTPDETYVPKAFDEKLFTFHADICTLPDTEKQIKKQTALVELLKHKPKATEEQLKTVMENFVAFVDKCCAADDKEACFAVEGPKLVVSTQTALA
In the anti-arthritic activity study, this assay involved determining the percentage of […]
anti-inflammatory drug, as prepared according to Meera et al. The protein denaturation percentage was measured by mixing 0.5mL of the test control solution, prepared by combining 0.45 mL of bovine serum albumin (BSA) (5% w/v aqueous solution) with 0.05 mL of distilled water. Then, 0.05 mL of the test solution was added to 0.45 mL of distilled water to form the product control (0.5 mL). The […]
pH value in all prepared solutions was adjusted to 6.3 using HCl (1N). All the samples were incubated at 37 °C for 20 min, and the temperature was then increased to 57 °C, maintaining the samples at that degree for 3 min. After cooling, 2.5 mL of phosphate buffer was added to the prepared solutions. The absorbance was […]
protein denaturation inhibition can be calculated. Proteinase inhibitory activity was assessed by combining the test sample (1 mL) with a reaction mixture containing 0.06 mg trypsin dissolved in 1 mL of 20 mM Tris HCl buffer (pH 7.4). The mixture was then incubated for 5 minutes at 37°C, followed by the addition of 1 mL of casein (0.8% w/v). […] The cloudy suspension was then centrifuged, and the absorbance of the supernatant was measured at 210 nm against buffer as the blank. The percentage of proteinase inhibitory activity was then calculated. […]

Test [4] in a line: Iron reducing power (IRP). To be noted: samples at 100 µg/mL; mean ± SE, n = 3. As for the experimental part:
ammonium molybdate. Methanol (80%) was used in place of the sample for the blank. The tubes were sealed and incubated in a boiling water bath for 90 minutes.
After cooling to room temperature, the absorbance was measured at 695 nm against the blank. […] was used at the same concentrations as a standard. The antioxidant capacity was expressed as mg gallic acid equivalent per gram weight.
The iron reducing power was determined as µg/mL using the method proposed by Oyaizu (1986). In brief, 1ml of the tested sample (at each concentration) was combined with 1mL of 200mM sodium phosphate buffer (pH 6.6) and 1mL of 1% potassium ferricyanide. […] The absorbance was measured at 700nm against a blank prepared without the sample. […] A high absorbance at 700nm indicates a higher reducing power in the reaction mixture.
The 1,1-Diphenyl-2-picryl-hydrazyl (DPPH) radical scavenging activities were evaluated using the method described by Rahman et al. An antioxidant substance capable of donating a hydrogen atom to a solution containing DPPH- can reduce the stable free radical, causing the solution to change color from violet to pale yellow.
The remaining DPPH- radical was quantified by measuring the intensity of a light-purple colored DPPH methanol solution in the visible range at 518 nm using a spectroscopic method. […]

`Cc1nn(-c2ccccc2)c(Cl)c1C=NN=C1C(=O)Nc2ccccc21` [SB]: in test [1] (HepG2), the viability (usually a read-out of living cells in per cent, often relative to untreated cells) at 31.13 µg/mL stood at 87.6%; the viability at 62.5 µg/mL amounted to 74.6%; the viability at 125 µg/mL came to 53.1%; the viability at 250 µg/mL is 40.2%. Further, the viability at 500 µg/mL in test [1] (HepG2) stood at 19.3%. In addition, in test [1] (HepG2, 48 h, read-out: Median Inhibitory Concentration (IC50) HepG-2), the IC50 stood at 127 ± 3.13 µg/mL (≈ 350 µM). The “Antioxidant activity TAC” value in test [2] was 65.41 ± 0.19 mg gallic acid/g. In addition, the inhibition at 100 µg/mL in test [3] is 26.11 ± 0.13%. Besides, the “Antioxidant activity IRP” value in test [4] is listed as 47.66 ± 0.19 µg/mL.
